Values quoted from earlier work, collected in publication PMC10363405 (Methods in molecular biology (Clifton, N.J.), 2022).

Biological target: β-tubulin
Experiment: fluorescence enhancement titration with crosslinked microtubules
Format: binding, Bos taurus

## CC(=O)OC1C(=O)C2(C)C(OC(=O)CCNC(=O)c3cc4cc(F)c(O)c(F)c4oc3=O)CC3OCC3(OC(C)=O)C2C(OC(=O)c2ccccc2)C2(O)CC(OC(=O)C(O)C(NC(=O)c3ccccc3)c3ccccc3)C(C)=C1C2(C)C (stereo not drawn) [PB-β-Ala-Taxol]
  Kd: 63 ± 8 nM
